Assay results published in patent US20140079775A1, “AGENTS TO TREAT/PREVENT AMOEBIASIS” (priority 2011, published 2014).
Like-named read-outs stand apart in the source and are kept apart here.

Tested on: E. histolytica mediated cytotoxicity on HT-29 cell layers
Format: cell-based, Entamoeba histolytica
Details: for protection of the cell layer (in words): physiologically relevant concentrations of individual HMO
Method: FIG. 2 HMO prevent E. histolytica mediated cytotoxicity in in vitro co-culture with enterocytes. Representative images of methylene blue stained HT-29 cell layers as such (A, left) or cocultured with HM-1 trophozoites in the absence (A, middle) or presence (A, right) of 10 mg/ml HMO. Dose response curve with different concentrations of HMO (B). The O.D 660 nm of methyleneblue cell layers was used as a measure for cytotoxicity. The cytoprotective effect of HMO was calculated as the percent ‘cell rescue’ compared to the untreated coculture (0%). Results are means SEM of 4 independent experiments. Cocultures were incubated with different glycans and cytotoxicity was determined as described above (C). […] HMO rescues cell layers when added to existing cocultures (D). HT-29 cells were cocultured with HM-1 and 20 mg/ml HMO was added at the indicated times of coculture. Cocultures were stopped and cytotoxicity was determined after 2 hrs. Control cell layers were cocultured for 2 hrs in the absence of HMO and were considered to have 0% cell rescue.
FIG. 3 Protection of the HT-29 monolayer by individual HMO. Cell rescue in co-culture treated with physiologically relevant concentrations of individual HMO (A). Symbols represent structures of individual HMO. Cell survival in the presence of equimolar concentrations of LNT, LNFP1 and a mixture of LNFP1, LNFP2, and LNFP3. […] Cytotoxicity assay with 10 mM 2′FL before and after fucosidase digestion (C). 2′FL left untreated or incubated with alpha1, 2 fucosidase was used in cytotoxicity assay. As controls, we used enzyme reaction buffer with inactivated fucosidase (control); equimolar concentrations (10 mM) of Lac, Fuc, or Fuc and Lac combined. Data from cytotoxicity assays are presented as % cell rescue compared to untreated cocultures (0%). Error bars are SEM, stars indicate statistical significance compared to control unless indicated by bars.
FIG. 4 GOS reduces cytotoxicity of trophozoites independent of its lactose content. Cell rescue in cocultures treated with increasing concentrations of GOS (triangles) or its corresponding lactose content (circles)(A). Cytotoxicity assay with GOS fractions (B). Higher numbered (eluted later) fractions contain lower molecular weight carbohydrates. The lactose content of fractions 11 and 12 is indicated above the respective bars. HPLC chromatogram of the original GOS preparation (20% lactose) (upper panel) and of the lactose free GOS (<0.5%) (C). Cytotoxicity assay with increasing concentrations of lactose-free GOS (triangles) and Lac-containing GOS (circles)(D).
HMO prevent enterocyte cytotoxicity by E. histolytica in in vitro cocultures. Previous studies have shown reduced Entamoeba attachment and cytotoxicity in the presence of selected carbohydrates (Cano-Mancera and Lopez-Revilla, 1987; Ravdin and Guerrant, 1981; Bracha and Mirelman, 1984). We tested the effect of HMO on Entamoeba induced cytotoxicity in in vitro cocultures with HT-29 cell layers and calculated the % cell rescue (FIG. 2A). […] The cell protective effect of 20 mg/ml HMO is similar to the effect of 10 mM lactose and better than the effect of 10 mM galactose (FIG. 2C). […] Treatment with 20 mg/ml after 90 min of cocultures could still rescue 31±4.7% of the cell layer.

Row | Compound | protection of the cell layer (in words) | prevention of cytotoxicity (in words) (10 mM) | also measured
1 | 3-sialyl-lactose [3′SL] | failed to prevent monolayer destruction |  | 
2 | CC(=O)N[C@H]1[C@H]([C@H](O)[C@H](O)CO)O[C@@](OC[C@H]2O[C@@H](O[C@H]3[C@H](O)[C@@H](O)C(O)O[C@@H]3CO)[C@H](O)[C@@H](O)[C@H]2O)(C(=O)O)C[C@@H]1O (stereo partly drawn) [6′SL, 6-sialyl-lactose] | failed to prevent monolayer destruction |  | 
3 | CC(=O)N[C@H]1[C@H](O[C@H]2[C@@H](O)[C@@H](CO)O[C@@H](O[C@H]3[C@H](O)[C@@H](O)C(O)O[C@@H]3CO)[C@@H]2O)O[C@H](CO)[C@@H](O)[C@@H]1O[C@@H]1O[C@H](CO)[C@H](O)[C@H](O)[C@H]1O[C@@H]1O[C@@H](C)[C@@H](O)[C@@H](O)[C@@H]1O (stereo partly drawn) [LNFP1] |  |  | rescue of enterocytes (in words) (5 mg/ml): no effect; cell rescue (10 mM): 16.9±1.7%
4 | CC(=O)N[C@H]1[C@H](O[C@H]2[C@@H](O)[C@@H](CO)O[C@@H](O[C@H]3[C@H](O)[C@@H](O)C(O)O[C@@H]3CO)[C@@H]2O)O[C@H](CO)[C@@H](O)[C@@H]1O[C@@H]1O[C@H](CO)[C@H](O)[C@H](O)[C@H]1O (stereo partly drawn) [LNT, Lacto-N-tetraose] | significantly protected the cell layer |  | cell rescue (5 mg/ml): 49.5±9.2%; cell rescue (10 mM): 79±8.3%
5 | OC[C@H]1O[C@@H](O[C@H]2[C@H](O)[C@@H](O)C(O)O[C@@H]2CO)[C@H](O)[C@@H](O)[C@H]1O (stereo partly drawn) [Lactose, lactose] |  | significantly prevent cytotoxicity | effect on cytotoxicity compared with lactose containing GOS (in words) (Lac concentrations present in each GOS sample): significantly lower
6 | C[C@H](O)[C@@H](O)[C@@H](O)[C@H](O)C=O [fucose] |  | no significant effect | prevention of cytotoxicity (in words) (10 mM, listed as Fucose): do not prevent cytotoxicity
7 | O=C[C@H](O)[C@@H](O)[C@@H](O)[C@H](O)CO [galactose] |  | no significant effect | 
